The values that follow come from US7314726B2, “Beta secretase exosite binding peptides and methods for identifying beta secretase modulators” (Bristol-Myers Squibb Company, priority 2002, dated 2008).

As a reminder, the Kd is the free concentration of one partner at which half of the binding sites on the other are occupied at equilibrium, for simple one-to-one binding.

The target in assay [1] is T1, BACE (Homo sapiens, UniProt P56817). The assay is described as follows: Isothermal titration calorimetry (ITC) of BACE and peptides. Also on record: The cDNA for the catalytic domain of human BACE (residues 1-460) was PCR-amplified; human IgG1 heavy chain (C, cleaved yes); thrombin cleavage site (C); made in house; host or cells: CHO DG44 cells (stably transfected, secreted). It counts as binding. As for the experimental part:
Isothermal titration calorimetry was performed to determine quantitatively the binding affinities of BMS-561877 and BMS-561871 for β-secretase. Recombinant human BACE was expressed as a fusion protein with human IgG1, in Chinese hamster ovary (CHO) cells (Vassar et al., (1999) Science 286:735-741 and Haniu et al., (2000) J. Biol. Chem. 275:21099-21106).
This construct, referred to as BACE-T-IgG, also contained a protease cleavage site between BACE and IgG1, sensitive to human α-thrombin. The cDNA for the catalytic domain of human BACE (residues 1-460) was PCR-amplified and subcloned into the mammalian expression vector pTV1.6, upstream of a thrombin cleavage site linked to cDNA encoding human IgG1 heavy chain. The vector construct, pTV1.6-BACE-T-IgG, was used to produce stably transfected DHFR-deficient CHO DG44 cells, which were then scaled up using methotrexate for selection.
The clarified growth media harvested from CHO DG44 cells which contained the fusion protein was loaded onto a rProtein A SEPHAROSE™ column (5×20 cm, Amersham Pharmacia Biotech) using a peristaltic pump at 4° C., at 4 mL/min. The column was washed with Dulbecco's PBS, pH 7.1, 4 mL/min, until baseline absorbance at 280 nm was observed. BACE-T-IgG was eluted from the resin with 0.10 M citrate, pH 3.0, into tubes containing 0.5 volumes of 4 M Tris, pH 8. Fractions containing the fusion protein were dialyzed extensively using 12,000-14,000 […] MWCO membrane (UltraPURE, GIBCO BRL) against PBS, pH 7.1, at 4° C. The protein was sterile filtered (0.22 μm) and stored at 4° C.
To generate BACE for binding experiments, the fusion protein BACE-T-IgG was treated with human α-thrombin (Enzyme Research Labs, South Bend, Ind.) at a ratio of 1:500 (mass:mass) in Dulbecco's PBS, pH 7.1, at 37° C. for 2 hr. Human α-thrombin was removed by passing the sample over Benzamidine SEPHAROSE™ 6B column (Amersham Pharmacia Biotech). The cleaved IgG1 was captured by passing the solution over a rProtein A SEPHAROSE™ (Amersham Pharmacia Biotech) column, whereas the BACE passed through this column. The protein sample was further purified by concentrating to 10-15 mg/mL using a centrifugation concentration unit (Millipore Ultrafree 10 kDa MWCO, 15 mL unit) and loading onto a SUPERDEX™ 200 PC 3.2/30 gel-filtration column (Amersham Pharmacia Biotech). The column was run at 3 mL/min with Dulbecco's PBS, pH 7.1, at room temperature. Fractions containing BACE were combined, sterile filtered (0.22 μm) and stored at 4° C.
BACE was prepared for isothermal titrating calorimetry by extensive dialysis against fresh buffer at 4° C. using 12,000-14,000 […] MWCO dialysis membrane (UltraPURE, GIBCO BRL). […] Following 2 buffer changes, the protein was removed from the membrane and centrifuged (5 min×4000 g, 4° C.) to remove particulates. The protein was stored at 4° C. until needed for the calorimetry experiments. The protein concentration was determined by 10-fold dilution into the same buffer, and measuring the UV absorbance at 280 nm in a 1.00 cm pathlength cell (calculated value=1.22 AU=1.00 mg/mL protein, based on mean glycosylated molecular weight=53.5 kDa, and given amino acid composition). Final concentrations used in isothermal titrating calorimetry were typically 5.0 μM, containing a final concentration of 0.5% v/v DMSO.
Peptides were dissolved in the buffer dialysate from protein dialysis, and equal volumes of DMSO were added to each (0.5% v/v DMSO). The pH values of the solutions were adjusted as necessary to equal that of the buffer dialysate and protein sample within 0.01 pH units.

Assay [2] concerns the target T1, BACE. Description: Competitive binding assay, displacement of labeled EBP from BACE, fluorescence anisotropy. Set-up: The cDNA for the catalytic domain of human BACE (residues 1-460) was PCR-amplified; human IgG1 heavy chain (C, cleaved yes); thrombin cleavage site (C); made in house; host or cells: CHO DG44 cells (stably transfected, secreted). The note with it: displacement of Molecule X, read-out: binding constant (Kd) of unlabeled peptide by competition. As for the experimental part:
The competitive binding assay was carried out at pH 7.1 (PBS buffer) or pH 4.5 (50 mM acetate buffer). The fluorescence anisotropy was measured at 25° C. in an AVIV fluorometer. The excitation and emission wavelengths were set to 495 and 519 nm, respectively. The excitation and emission slit widths were 4 and 10 nm, respectively.
The initial anisotropy value was measured. A concentrated unlabeled peptide or compound stock was titrated into the above solution of EBP and BACE. The final concentration of unlabeled peptide or compound ranges from 20 to 20000 nM. After each addition, the solution was mixed for 10 times with a pipettor. The fluorescence anisotropy was averaged over a 5 minute period.
The change in anisotropy was converted to fractional occupancy based on the r0 and rb obtained from the binding assay. The fractional occupancy was then plotted against the concentration of the competing peptide or compound. (see, for example, FIG. 6) The Kd of the competing ligand was calculated from curve fitting using the program […]™ (Synergy Software, Reading, Pa.). The equation used to fit the competition data is identical to equation 4 in Lai et al., (2000) Arch. Biochem. Biophys. 381:278-284.
The truncated unlabeled peptides were screened at a single concentration of 10 μM at pH 4.5. The anisotropy values detected with Molecule X in the absence of inhibitor, i.e., truncated unlabeled peptide (ra) and in the presence of the inhibitor (rb) and the labeled peptide alone (r0) were used to calculate the percent of inhibition: 100 (ra-rb)/(ra-r0). The percent of inhibition was compared among the truncated peptides.
In general terms: Fluorescence polarisation rises when a labelled molecule tumbles more slowly, as on binding a larger partner.

Setting [3] is: pH 5.3, 37° C., sample cell: CHO BACE.
The mark [4] stands for this setting: pH 5.3, 37° C., sample cell: CHO BACE: OM99-2 (10-fold excess added first).

T1 sequence (P56817 46-460 limits assumed): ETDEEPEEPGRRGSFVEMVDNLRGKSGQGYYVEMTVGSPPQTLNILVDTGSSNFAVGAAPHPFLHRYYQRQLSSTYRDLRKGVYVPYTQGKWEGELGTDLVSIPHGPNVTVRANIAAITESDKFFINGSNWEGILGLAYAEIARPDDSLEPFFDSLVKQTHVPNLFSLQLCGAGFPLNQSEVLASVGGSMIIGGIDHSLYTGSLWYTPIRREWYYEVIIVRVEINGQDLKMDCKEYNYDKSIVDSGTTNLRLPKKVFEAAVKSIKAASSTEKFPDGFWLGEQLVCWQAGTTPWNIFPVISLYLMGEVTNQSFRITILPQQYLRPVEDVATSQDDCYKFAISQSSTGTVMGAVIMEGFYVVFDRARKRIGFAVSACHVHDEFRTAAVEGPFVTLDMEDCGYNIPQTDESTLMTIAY

For the substance Ac-NLTTYPYFIPLP-OH [BMS-561871], in assay [1] (25° C., Dulbecco's PBS, pH 7.1), the KA came out at 1.65e+07 M⁻¹; the affinity, expressed as Kd, was 61 nM; the “n (binding stoichiometry)” value worked out at 1.03; the ΔH was -12.9 kcal/mol. Moreover, in assay [1] (setting [3]), the Kd is 380 nM, the “T(dS)” value was -6.8 kcal/mol, the ΔG is -9.1 kcal/mol and the ΔH was -15.9 kcal/mol. In assay [1] (setting [4]), binding was characterised by a dissociation constant (Kd) of 280 nM, the “T(dS)” value was -5.7 kcal/mol, the ΔG was -9.3 kcal/mol and the ΔH is -15.0 kcal/mol. Further, the dissociation constant (Kd) in assay [2] (pH 4.5) is 1070 nM. Besides, the dissociation constant (Kd) in assay [2] (pH 7.1) turned out to be 84 nM.
